# According to US20210318335A1, “BIOMARKERS, COMPOSITIONS, AND METHODS FOR DIAGNOSING AND TREATING SUBJECTS EXPOSED TO PROTEIN/HEPARIN COMPLEXES” (DUKE UNIVERSITY, priority 2018, published 2021):
# B1: C1 esterase inhibitor: C1-inhibitor, classical pathway complement inhibitor added to plasma at 10 and 20 IU/mL (protein, UniProt P05155 23-500, looked up)
# Plasma protease C1 inhibitor: NPNATSSSSQDPESLQDRGEGKVATTVISKMLFVEPILEVSSLPTTNSTTNSATKITANTTDEPTTQPTTEPTTQPTIQPTQPTTQLPTDSPTQPTTGSFCPGPVTLCSDLESHSTEAVLGDALVDFSLKLYHAFSAMKKVETNMAFSPFSIASLLTQVLLGAGENTKTNLESILSYPKDFTCVHQALKGFTTKGVTSVSQIFHSPDLAIRDTFVNASRTLYSSSPRVLSNNSDANLELINTWVAKNTNNKISRLLDSLPSDTRLVLLNAIYLSAKWKTTFDPKKTRMEPFHFKNSVIKVPMMNSKKYPVAHFIDQTLKAKVGQLQLSHNLSLVILVPQNLKHRLEDMEQALSPSVFKAIMEKLEMSKFQPTLLTLPRIKVTTSQDMLSIMEKLEFFDFSYDLNLCGLTEDPDLQVSAMQHQTVLELTETGVEAAAASAISVARTLLVFEVQQPFLFVLWDQQHKFPVFMGRVYDPRA
# How the values were obtained:
# [1] = tested on: complement activation by PF4/heparin complexes; experiment: Antigen-C3c capture ELISA assay: complement activation by PF4/heparin in plasma; type: biochemical, human; settings: for effect of chelator on complement activation by PF4/heparin: 10 mM added to healthy donor plasma prior to PF4/heparin
# Experimental: Antigen-C3c capture ELISA assay and Specificity ELISA: Antigen-specific monoclonal antibodies (mouse anti human PF4/heparin; KKO or mouse anti-protamine/heparin; ADA at 2 μg/mL) were incubated overnight on a microtiter plate (in phosphate buffered saline, PBS) followed by washing and blocking with 1% bovine serum albumin (BSA) in PBS for 2 hours. […] Unless specified antigen concentrations were 25 μg/mL (PF4) and 0.25 U/mL (heparin) for KKO coated plates and 125 μg/mL (PRT) and 6 U/mL (heparin) for ADA coated plates. Next, plasma containing antigen fixed by complement activation fragments was added to the capture plate for 1 hr followed by serial washes. Complement-coated antigen was detected using a biotinylated anti-C3c antibody (recognizes C3 and all C3c-containing fragments of C3, including iC3b; Quidel Corporation, San Diego, Calif.) followed by colorimetric detection as previously described. […] IgM studies: Goat anti-human IgM (μ-chain specific) agarose beads were used to deplete IgM from plasma. Anti-IgM or control agarose beads were incubated with plasma and depleted plasma supernatant was analyzed in the antigen-C3c capture assay described above.
# [2] = tested on: B cells; experiment: Flow cytometry of whole blood: binding of PF4/heparin, C3c and IgM to B cells; type: cell-based, human; settings: whole blood incubated with PF4 25 μg/mL + heparin 0.25 U/mL; excess heparin wash
# Experimental: Flow cytometry studies: Flow-based studies of antigen, complement, or IgM binding to B cells were performed as described previously (Khandelwal S, et al. (2016) Blood, 128(14):1789-1799). Patient samples were processed without addition of exogenous antigen. Cells were analyzed using a BD FACS Canto Flow cytometer (BD Biosciences, Franklin Lakes, N.J.). Signals from a minimum of 10,000 cells were acquired from each sample. Analyses were performed using FCS express software (Version 5 Flow Research Edition; De Novo Software).
# To examine if IgM co-localizes with PF4/heparin antigen and complement on B cells, surface IgM on B cells before and after addition of antigen were examined.
molecule,measurement,setting,value
"O=C(O)CN(CCOCCOCCN(CC(=O)O)CC(=O)O)CC(=O)O [EGTA, ethylene glycol-bis (β-aminoethyl ether)-N,N,N′,N′-tetraacetic acid]",effect of chelator on complement activation by PF4/heparin,[1],eliminated complement activation
heparin,effect of excess heparin on PF4/heparin and IgM fluorescence on B cells,[2],reduced PF4/heparin and IgM fluorescence to baseline
"[Cl-].[Cl-].[Mg+2] [Mg^2+, Magnesium chloride]",effect of Mg2+ supplementation on complement activation by PF4/heparin,"[1]; EGTA-treated plasma (10 mM EGTA), MgCl2 10 mM",did not rescue complement activation
"O=C(O)CN(CCN(CC(=O)O)CC(=O)O)CC(=O)O [EDTA, ethylenediaminetetraacetic acid]",effect of chelator on complement activation by PF4/heparin,[1],eliminated complement activation
B1,effect of C1-inhibitor on complement activation by PF4/heparin,"[1]; 10 and 20 IU/mL, healthy donor plasma pre-incubated before PF4/heparin",complement activation was reduced
